Experimental data reported in ChEMBL document CHEMBL3507680, “University of Dundee, Gates Library screen for HepG2 cell viability”.

Test: Human HepG2 cell viability assay in 384 well format
Format: toxicity, cell-based
Parameters: dose 125 nL, time 70.5 hour; cytotoxicity at 70.5 h: concentration not given beside the values
Conditions: HepG2 cells, read-out: Inhibition

Structure (SMILES) | cytotoxicity at 70.5 h
Cc1ccc(NC(=O)Cn2ccc3c(=O)n(C)ccc32)cc1F | -5.99%
CS(=O)(=O)c1ccc(-c2ccccc2C(=O)O)cc1 | -4.68%
CNC(=O)c1cc(C)n(-c2ccccc2)n1 | -2.98%
CN(C)C(=O)c1cccnc1SCc1ccccc1Cl | 1.28%
CN(C)C(=O)c1cccnc1SCc1ccccc1C#N | -4.31%
CSc1ncccc1C(=O)N(CCO)Cc1ccccc1 | -0.362%
O=C(NC1CCCCC1)c1cc(Br)cnc1N1CCCCC1 | -4.56%
O=C1CC2(CCN(C(=O)c3ccncc3)CC2)Oc2c(Cl)cc(Cl)cc21 | -5.1%
O=C1CC2(CCN(C(=O)c3ccccn3)CC2)Oc2c(Br)cc(Br)cc21 | 1.74%
Cc1ccc2c(c1)C(=O)CC1(CCN(Cc3ccccc3)CC1)O2 | -2.96%
CN(C)C(=O)CN1CCC2(CC1)CC(=O)c1c(ccc3ccccc13)O2 | -1.64%
NC(=O)CN1CCC2(CC1)CC(=O)c1ccc3ccccc3c1O2 | -2.33%
CCOC(=O)CN1CCC2(CC1)CC(=O)c1ccc3ccccc3c1O2 | -5.23%
O=C(NCCc1ccncc1)c1cccnc1OCC(F)(F)F | -1.85%
O=C(NCCOCCO)c1cccnc1Oc1ccc(Cl)cc1 | 16.6%
O=C(c1cccnc1Oc1ccc(Cl)cc1)N1CC[C@@H](O)C1 | 24.9%
COCCNC(=O)c1cccnc1Oc1ccc(Cl)cc1 | -7.58%
O=C(NC[C@H]1CCCC[C@H]1O)c1cccc2[nH]c(-c3ccco3)nc12 | 15.3%
CC(=O)N1N=C(c2ccccc2)OC1C(=O)N(C)CCc1ccccc1 (stereo unspecified) | 20%
CC(=O)N1N=C(c2ccccc2)OC1C(=O)NCCc1cccc(F)c1 (stereo unspecified) | 4.79%
CC(=O)N1N=C(c2ccco2)OC1C(=O)NCC(C)C (stereo unspecified) | -4.23%
Cc1cc(Cl)ccc1-n1ncc(C(=O)N(C)CCc2ccccn2)c1N | 49.3%
CC1(C)OCC(CNC(=O)c2cnn(-c3cccc(Cl)c3Cl)c2N)O1 (stereo unspecified) | 17%
CC(C)c1ccc(-n2ncc(C(=O)NCC3COC(C)(C)O3)c2N)cc1 (stereo unspecified) | 26.2%

Structure (SMILES) | cytotoxicity at 70.5 h
CN(CCc1ccccn1)C(=O)c1cnn(-c2ccccc2F)c1N | 7.25%
Cc1ccc(-n2ncc(C(=O)NC3CC(C)(C)NC(C)(C)C3)c2N)cc1 | 19.8%
CCOC(=O)C1CCN(C(=O)c2cnn(-c3ccc(C)cc3)c2N)CC1 | -5.44%
Cc1ccc(-n2ncc(C(=O)N(C)C3CCN(C)CC3)c2N)cc1C | 8.36%
CC(C)[C@H]1CN(C2Cc3ccccc3C2)C[C@@H]1NS(=O)(=O)N(C)C | 0.396%
COCCN1CCC(CN(C)c2nc3c(s2)c(C)nn3C)CC1 | 13.5%
Cc1ccc(C)c(C(NC2CCCC2)c2cccnc2)c1 (stereo unspecified) | 7.4%
COCCOCC(=O)N(Cc1cccc(C)c1)C(C)C | 3.91%
Cc1ncsc1CCC(=O)NCc1csc(N(C)C)n1 | -1.1%
CCn1cncc1CNC(=O)c1ccc(C2CCCN2C(=O)COC)s1 (stereo unspecified) | -12%
CSCc1noc(CNC2CCCC(C)(C)C2)n1 (stereo unspecified) | -5.82%
CCSc1ncc(CN2CCC(O)(CN3CCOCC3)C(C)(C)C2)cn1 (stereo unspecified) | 38.5%
Cc1nc2ccccc2n1Cc1cc(C(=O)N(C)C2CCOCC2)no1 | 12.4%
CC(C)CN1CCCn2nc(CNC(=O)NC(C)(C)C)cc2C1 | -6.75%
COCCN(Cc1nccs1)c1nc2c(s1)c(C)nn2C | -10.8%
Nc1cc(N2CCCC(COc3ccc(F)cc3)C2)ncn1 (stereo unspecified) | -12.7%
CN(Cc1nccn1C)C1CCCN(CCCc2ccccc2)C1 (stereo unspecified) | -6.62%
c1ccc(C(CC2CN(Cc3ncc[nH]3)CCO2)c2ccccc2)cc1 (stereo unspecified) | 0.214%
Cc1cc(C)n(CCC2CC(=O)Nc3cc(O)c(C)cc32)n1 (stereo unspecified) | -5.9%
CCc1cc(N2CCC3(CCCNC3=O)C2)nc(N2CCOCC2)n1 (stereo unspecified) | -4.73%
Cc1nc[nH]c1CN1CCCC(CNC(=O)c2ccc(N)nc2)C1 (stereo unspecified) | -6.47%
CCNC(=O)N1C[C@@H](NC(C)=O)[C@H](c2ccc(C)o2)C1 | -2.82%
Cc1cccc(OCC2CCCN(C(=O)Cn3ccccc3=O)C2)c1 (stereo unspecified) | 5.85%
CCCc1cc(C(=O)N2C[C@H](O)[C@@H](N3CCCC3)C2)ccn1 | 16.4%

Structure (SMILES) | cytotoxicity at 70.5 h
CCSC(C)C(=O)N1CCC(c2nn(C)c(=O)n2-c2ccccc2)CC1 (stereo unspecified) | -7.97%
CCC(Cn1ccnc1)n1cnc2c(C)csc2c1=O (stereo unspecified) | -14.3%
CCn1cnnc1C1CCN(C(=O)c2cccc(OC)c2OC)CC1 | -7.68%
CCn1cnnc1C1CCN(C(=O)c2cc(OC)ccc2OC)CC1 | 1%
CC(C)c1cc(NC(=O)c2cccnc2)[nH]n1 | -10.3%
Cc1cnn(CCNCC(=O)NC(C)c2ccc3c(c2)OCCO3)c1 (stereo unspecified) | -3.11%
Cc1nccn1C1CCCN(C(=O)c2ccc3nncn3c2)C1 (stereo unspecified) | -4.02%
CCn1cnnc1C1CCN(C(=O)c2ccoc2C)CC1 | 11.9%
Cc1nc(CN(C)C2CCCN(c3cccnn3)C2)nc2ccccc12 (stereo unspecified) | 1.21%
O=C1NCCN1C1CCN(Cc2nc(-c3ccccc3)no2)CC1 | 13.9%
Cc1nc(CN(C)C2CCCN(c3ccccc3)C2)no1 (stereo unspecified) | -3.56%
CCCc1noc(CNc2ccc(C(=O)N3CCCC3)cc2C)n1 | -0.0635%
Cc1cc(C)n(CC2CN(CC3CCCC3)CCO2)n1 (stereo unspecified) | -3.55%
Cc1cnn(C2CN(Cc3nc(-c4cccnc4)no3)C2)c1 | 1.92%
CC(=O)N(C)c1nc(CN2CCCC2Cn2nc(C)cc2C)cs1 (stereo unspecified) | -3.11%
CC(=O)Nc1nc(CN2CCCCC2Cn2cncn2)cs1 (stereo unspecified) | 0.302%
Cc1cnn(C2CN(Cc3nc(-c4ccccc4C)no3)C2)c1 | 11%
COCCOc1ccc(Cl)c(C(=O)N2CCN(CCO)CC2)n1 | -2.95%
OCCN1CCN(Cc2coc(-c3cccc(F)c3)n2)CC1 | -7.98%
CCn1cc(CN2CCCN(C(=O)CCc3cnn(C)c3)CC2)cn1 | -11.5%
O=C(c1ccoc1)N1CCC(Nc2cccnn2)CC1 | -8.84%
CC(C)c1nn(C)c(N(C)C)c1CNCC(O)c1ccccc1 (stereo unspecified) | -10.1%
Cn1ncc2c(=O)[nH]c(CN(Cc3ccco3)C3CC3)nc21 | -16.2%
CN(Cc1nc2c(cnn2C)c(=O)[nH]1)Cc1ccco1 | 7.12%

Structure (SMILES) | cytotoxicity at 70.5 h
Cc1nc2cc(O)nn2c(C)c1CCC(=O)NCCc1ccccc1 | 10.3%
Cc1nc2cc(O)nn2c(C)c1CCC(=O)NCCCC(C)C | -3.79%
CC(C)Cc1cc(NC(=O)c2n[nH]c3ccccc23)n(C)n1 | -5.98%
Cc1cnn(C2CCCN(C(=O)c3ccc(NC4CC4)nc3)C2)c1 (stereo unspecified) | -13.3%
COC(=O)c1cccn1C1CCN(C(=O)c2ccc(C)cc2O)CC1 | -8.93%
CC(C)Cc1cc(NC(=O)c2cc(Cl)c[nH]2)n(C)n1 | -8.43%
Cc1nc(NC(=O)CCc2c(C)nc3cc(O)nn3c2C)sc1C | -16.5%
Cc1cnn(C2CCCN(C(=O)c3ccc(N4CCCC4)nc3)C2)c1 (stereo unspecified) | -7.94%
CCOc1ccc(Cl)c(C(=O)N2CCN(CC(C)(C)O)CC2)n1 | -12.6%
Cc1ccc(F)c(NS(=O)(=O)c2cc(C(=O)O)oc2C)c1 | -10%
CN(C(=O)C1CCCC1)C(c1cccc(F)c1)c1ccccn1 (stereo unspecified) | 14.2%
CC(C)c1nc(CN2CCCN(c3nccs3)CC2)no1 | 6.41%
CC(=O)N1CCC(Nc2cc(F)ccc2OCC2CCCO2)CC1 (stereo unspecified) | 11.4%
COCCN1CCC(NCc2cc(F)ccc2F)C1 (stereo unspecified) | 22.5%
CCc1noc(CN2CCCN(Cc3cccs3)CC2)n1 | -11.1%
Cc1cc(C)c(C(=O)N2CCOCC2c2c(C)nn(C)c2C)o1 (stereo unspecified) | -12.3%
CNC(=O)COc1ccc(CNc2cncc(-n3cccn3)n2)cc1 | -16.8%
CCCc1noc(CN2CCN(c3nccs3)CC2)n1 | -6.87%
COc1ncccc1NC(=O)N(Cc1ccc(C(N)=O)cc1)C1CC1 | -12.7%
COc1ncccc1NC(=O)N(Cc1ccco1)C1CC1 | -14.3%
COc1ncccc1NC(=O)N(CC(C)C)C1CC1 | -8.09%
COC(=O)Nc1ccc(CNc2cncc(-n3cccn3)n2)cc1 | -18.2%
CC(C)OCc1ccc(CNc2cncc(-n3cccn3)n2)cc1 | -5.97%
CCCOc1ccc(CNc2cncc(-n3cccn3)n2)cc1 | -6.6%

Structure (SMILES) | cytotoxicity at 70.5 h
CCN(CC)C(=O)c1ccc(CNc2cncc(-n3cccn3)n2)cc1 | -7.26%
CN(C)c1cc(CNc2cncc(-n3cccn3)n2)ccn1 | -15.7%
O=C(Nc1cc(C(F)(F)F)c[nH]c1=O)N1CCOCC1 | -12.9%
COC1CCN(C(=O)Nc2cc(C(F)(F)F)c[nH]c2=O)CC1 | -6.98%
O=C(c1ccsc1)N1CCC(Nc2cccnn2)CC1 | -3.37%
c1ccc(CN2CCN(c3ccc4nncn4n3)CC2)nc1 | -9.47%
c1ccc(CCN2CCN(c3ccc4nncn4n3)CC2)cc1 | -1.86%
Cc1ccc(NC2CCN(C(=O)c3ccc(F)c(C)c3)CC2)nn1 | 14.1%
COc1ncccc1NC(=O)N(C1CC1)C(C)C(C)C (stereo unspecified) | -13.6%
O=C(O)c1c[nH]c2cc(NS(=O)(=O)c3cccc(F)c3F)ccc12 | -9.73%
O=C(O)c1c[nH]c2cc(NS(=O)(=O)c3cc(F)ccc3Cl)ccc12 | -9.41%
Cc1ccc(F)cc1S(=O)(=O)Nc1ccc2c(C(=O)O)c[nH]c2c1 | 1.03%
O=C(CC(F)(F)F)Nc1cc(F)ccc1OCC1CCCO1 (stereo unspecified) | -11.3%
Cc1ccc(O)c(C(=O)N2CCOCC2c2c(C)nn(C)c2C)c1 (stereo unspecified) | -2.1%
CCCC(=O)N(C)C(c1cccc(F)c1)c1ccccn1 (stereo unspecified) | -3.08%
Cn1cc(CCN2CCOC(CNc3cccnn3)C2)cn1 (stereo unspecified) | 21.9%
COc1ccc(C(=O)N2CCN(CCO)CC2)c(F)c1 | -4.32%
CCn1c(C(=O)N2CCN(CC[S+](C)[O-])CC2)cc2ccccc21 (stereo unspecified) | 0.944%
CCN(Cc1ccc2c(c1)OCO2)S(=O)(=O)N(C)C | 0.18%
O=C(c1cccn1Cc1cccs1)N1CCN2CCCCC2C1 (stereo unspecified) | 4.27%
